Literature values in PubChem BioAssay AID1259410 (Chemical Carcinogenesis Research Information System (CCRIS), 2018).

Test system: rodent tumor promotion studies, tumor incidence
Test: CCRIS tumor promotion studies
[1] = Carcinogen: 7,12-DIMETHYLBENZ(A)ANTHRACENE, Doses [Carcinogen]: TOP, Route [Carcinogen]: DERMAL, Route [Promoter]: DERMAL, Species: MOUSE, Strain/Sex: FEMALE

O=c1cc(CO)occ1O
outcome (Carcinogen: N-NITROSOBIS(2-HYDROXYPROPYL)AMINE;53609-64-6, Doses [Carcinogen]: 2000 MG/KG BW ONCE, Doses [Promoter]: 0, 0.002%, 0.008%, 0.03%, 0.125%, 0.5%, 2% IN DIET FOR 20 WK BEGINNING 1 WK POST CARCINOGEN TREATMENT (STUDY DURATION: 2, Doses [Promoter]: 0, 0.002%, 0.008%, 0.03%, 0.125%, 0.5%, 2% IN DIET FOR 20 WK BEGINNING 1 WK POST CARCINOGEN TREATMENT (STUDY DURATION: 2, Route [Carcinogen]: SUBCUTANEOUS, Route [Promoter]: ORAL, Species: RAT, Strain/Sex: F344/MALE): thyroid gland: adenoma, carcinoma

O=[Se](O)O
outcome (Carcinogen: N-METHYL-N'-NITRO-N-NITROSOGUANIDINE [70-25-7], Doses [Carcinogen]: 20 MG/KG BW DAILY FOR 10 D, Doses [Promoter]: 0, 2, 4 MG/L 1 WK BEFORE MNNG (STUDY DURATION: 43 WKS), Doses [Promoter]: 0, 2, 4 MG/L 1 WK BEFORE MNNG (STUDY DURATION: 43 WKS), Route [Carcinogen]: GAVAGE?, Route [Promoter]: DRINKING WATER, Species: RAT, Strain/Sex: WISTAR/MALE): stomach: gastric cancer | outcome (Doses [Carcinogen]: 20 MG/KG/D FOR 10 D, Doses [Promoter]: 2, 4 MG/L WATER ONE WK BEFORE CARCINOGEN (STUDY DURATION: 43 WK), Route [Carcinogen]: GAVAGE, Route [Promoter]: DRINKING WATER, Species: RAT, Strain/Sex: WISTAR (15/GROUP)): stomach: gastric leiomyoma

Clc1ccc(-c2ccc(Cl)c(Cl)c2)cc1Cl
outcome (Carcinogen: 7,12-DIMETHYLBENZ[A]ANTHRACENE, 57-97-6, Doses [Carcinogen]: 10 MG IN 0.5 ML CORN OIL ONCE, Doses [Promoter]: 0, 10 MG/KG BW ONCE AT TIME OF CARCINOGEN DOSE THEN 500 UG/G OF FAT IN DIET FOR 1 WK ADMINISTERED TO RATS FED HIGH-FAT (, Route [Carcinogen]: GAVAGE, Route [Promoter]: GAVAGE, ORAL, Species: RAT, Strain/Sex: SPRAGUE-DAWLEY/FEMALE): mammary gland: tumor | outcome (Carcinogen: 7,12-DIMETHYLBENZ[A]ANTHRACENE, 57-97-6, Doses [Carcinogen]: 10 MG IN 0.5 ML CORN OIL ONCE, Doses [Promoter]: 0, 10 MG/KG BW ONCE AT TIME OF CARCINOGEN DOSE THEN 500 UG/G OF FAT IN DIET FOR 1 WK ADMINISTERED TO RATS FED LOW FAT (5, Route [Carcinogen]: GAVAGE, Route [Promoter]: GAVAGE, ORAL, Species: RAT, Strain/Sex: SPRAGUE-DAWLEY/FEMALE): mammary gland: tumor

S=c1nc[nH]c2nc[nH]c12
outcome (Carcinogen: UV IRRADIATION, Doses [Carcinogen]: 0.53 J/CM2 INCREASED BY 20% EVERY 2 WK TO 1.60 J/CM2 AND MAINTAINED AT 1.60 J/CM2 UNTIL DEATH, ADMINISTERED 5 D/WK FOR 1, Doses [Promoter]: 0, 15 UG/G BEGINNING 2 WK POST FIRST CARCINOGEN DOSE ADMINISTERED 2 HR PRIOR TO EACH CARCINOGEN DOSE (STUDY DURATION: 30, Route [Carcinogen]: DERMAL, Route [Promoter]: INTRAPERITONEAL, Species: MOUSE, Strain/Sex: SKH/HRL/FEMALE): skin: tumor

CCCCCCCC/C=C\CCCCCCCC(=O)OC
outcome (Carcinogen: 7,12-DIMETHYLBENZ(A)ANTHRACENE, Doses [Carcinogen]: TOP, Route [Carcinogen]: DERMAL, Route [Promoter]: DERMAL, Species: MOUSE, Strain/Sex: MALE,FEMALE): integumentary system (skin)

Oc1ccccc1-c1ccccc1
outcome (Carcinogen: 7,12-DIMETHYLBENZ[A]ANTHRACENE, 57-97-6, Doses [Carcinogen]: 10 UG 2/WK FOR 5 WK, Doses [Promoter]: 0, 5 MG 2/WK FOR 47 WK BEGINNING 1 WK AFTER LAST CARCINOGEN DOSE (STUDY DURATION: 53 WK), Route [Carcinogen]: DERMAL, Route [Promoter]: DERMAL, Species: MOUSE, Strain/Sex: CD-1/FEMALE): skin: papilloma, carcinoma | outcome (Carcinogen: N-BUTYL-N-4(HYDROXYBUTYL)NITROSAMINE, 3817-11-6, Doses [Carcinogen]: 0.05% IN DRINKING WATER FOR 2 WK, Doses [Promoter]: 0, 2% IN DIET STARTING POST CARCINOGEN AND CONTINUING FOR 22 WK, LEFT URETER LIGATED 8 D POST CARCINOGEN (STUDY DURATION, Route [Carcinogen]: ORAL, Route [Promoter]: ORAL, Species: RAT, Strain/Sex: F344/MALE): bladder: papilloma | outcome (Carcinogen: N-BUTYL-N-(4-HYDROXYBUTYL)NITROSAMINE, Doses [Carcinogen]: 0.05% IN DRINKING WATER FOR 4 WK, Doses [Promoter]: 2.0% IN DIET FOR 32 WK AFTER INITIATION, Route [Carcinogen]: ORAL, Route [Promoter]: ORAL, Species: RAT, Strain/Sex: F344/MALE): urinary bladder: transitional cell carcinoma

CCCCCCCCCC
outcome [1]: integumentary system (skin) | outcome (Carcinogen: BENZO(A)PYRENE, Doses [Carcinogen]: TOP, Route [Carcinogen]: DERMAL, Route [Promoter]: DERMAL, Species: MOUSE, Strain/Sex: FEMALE): integumentary system (skin)

N[C@@H](Cc1cc(I)c(Oc2cc(I)c(O)c(I)c2)c(I)c1)C(=O)O
outcome (Carcinogen: AZOXYMETHANE, 25843-45-2, Doses [Carcinogen]: 7.4 MG/KG IN 0.9% SALINE 1/WK FOR 10 WK, Doses [Promoter]: 0, 0.2 UG/KG IN OLIVE OIL 1/2 D FOR 35 WK (STUDY DURATION: 35 WK), Route [Carcinogen]: SUBCUTANEOUS, Route [Promoter]: SUBCUTANEOUS, Species: RAT, Strain/Sex: WISTAR/MALE): colon: tumor | outcome (Carcinogen: N-METHYL-N'-NITRO-N-NITROSOGUANIDINE, 70-25-7, Doses [Carcinogen]: 25 UG/ML IN DRINKING WATER FOR 25 WK, Doses [Promoter]: 0, 0.2 UG/KG BW IN OLIVE OIL 1/2 D BEGINNING POST CARCINOGEN TREATMENT AND CONTINUING FOR 26 WK (STUDY DURATION: 52 WK), Route [Carcinogen]: ORAL, Route [Promoter]: SUBCUTANEOUS, Species: RAT, Strain/Sex: WISTAR/MALE): stomach: adenocarcinoma

CCCCCCCCCCCC
outcome [1]: integumentary system (skin)
